“And” between values parts separate entries of the source, which are not always exact repeats. Equal values may be shown once.
What was measured:
HepG2 cells [1] = assay: EMT markers vimentin and E-cadherin by flow cytometry; format: cell-based, human; details: HepG2, 24 h; 6 μM complex 2
Description: To stain the cell surface proteins, the cells were washed with an incubation buffer (0.5% bovine serum albumin in PBS), and then antibodies were added and incubated for 1 h at room temperature. The cells were then washed with PBS, and the fluorescence signal was measured by flow cytometry. CD133 and CD44 were quantified in YO-PRO-1 (Sigma‒Aldrich Co.) negative cells.
To stain intracellular proteins, the cells were harvested and resuspended in 0.5-1 mL of 4% formaldehyde for 10 min at 37 °C. The tube was then placed on ice for 1 min, after which the cells were prechilled and permeabilized using a sequence of 100% (30 min) to 90% (30 min) methanol with gentle mixing. After washing with incubation buffer (0.5% bovine serum albumin in PBS), primary antibodies were added and incubated for 1 h at room temperature. Finally, the cells were washed with PBS, and flow cytometry was used to measure cell fluorescence.

HepG2 cells [2] = assay: qPCR array gene expression; format: cell-based, human; design: key to RQ MTOR / RQ GSTP1 / RQ TXN / RQ TXNRD1 / RQ CTSS / RQ TOP2B / RQ NFKB1 / RQ HDAC1 / RQ AURKC / RQ NTN3 / RQ HDAC6 / RQ TNKS: RQ by 2^-ΔΔCT, fold vs 0.2% DMSO calibrator (=1); key to RQ BCL2 / RQ BIRC5 / RQ ERBB2 / RQ ERBB3 / RQ IGF1R / RQ CTSD / RQ ESR1 / RQ CDC25A / RQ HIF1A / RQ CDK9 / RQ MDM2 / RQ TP53 / RQ KRAS / RQ HDAC11 / RQ HDAC8: fold change by 2^-ΔΔCT vs 0.2% DMSO calibrator (=1); details: 12 h; 8 µM complex 1, 6 µM complex 2
Description: Total RNA was extracted using the RNeasy Plus Mini Kit (Qiagen; Hilden, Germany) following the manufacturer’s instructions. A NanoDrop® 1000 spectrophotometer (Thermo Fisher Scientific, Waltham, Massachusetts, USA) was used to quantify and assess the purity of the RNA. Reverse transcription was performed using the Superscript VILOTM enzyme (Invitrogen Corporation; Waltham, MA, USA), and a TaqMan® array human cancer drug target 96-well plate, fast (ID RPRWENH, Applied BiosystemsTM, Foster City, CA, USA) was used for the gene expression study by qPCR (ABI ViiA7, Applied Biosystems instrument). The cycle conditions were 2 min at 50 °C, 10 min at 95 °C, and 40 cycles of 15 s at 95 °C and 1 min at 60 °C. All the experiments were conducted under DNase/RNase-free conditions. The 2^-ΔΔCT method was used to calculate the relative quantification (RQ) of mRNA expression using Gene Expression SuiteTM Software (Applied BiosystemsTM). Cells treated with the negative control (0.2% DMSO) were used as a calibrator, and the RQs of the reference genes GAPDH, UBC and RPLP0 were used to normalize the responses.

For `Cc1cc(=O)nc([S][Ru+])[nH]1.F[P-](F)(F)(F)(F)F.c1ccc(-c2ccccn2)nc1.c1ccc(P(c2ccccc2)c2ccccc2)cc1.c1ccc(P(c2ccccc2)c2ccccc2)cc1` [Complex 2, trans-[Ru(6m2TU)(PPh3)2(bipy)]PF6], the E-cadherin expression (HepG2 cells [1]) was “increased”, the vimentin expression (HepG2 cells [1]) was “reduced” and the “RQ ABCC1” value (HepG2 cells [2]) was 1.941. The “RQ AKT1” value (HepG2 cells [2]) was 1.087, the “RQ AKT2” value (HepG2 cells [2]) was 1.490 and the “RQ ATF2” value (HepG2 cells [2]) was 2.672. The “RQ AURKA” value (HepG2 cells [2]) was 1.172, the “RQ AURKB” value (HepG2 cells [2]) was 1.242 and the “RQ AURKC” value (HepG2 cells [2]) was 2.011. The “RQ BCL2” value (HepG2 cells [2]) was 1.249, the “RQ BIRC5” value (HepG2 cells [2]) was 1.033 and the “RQ CDC25A” value (HepG2 cells [2]) was 6.141. For the same compound, the “RQ CDK1” value (HepG2 cells [2]) was 0.752, the “RQ CDK2” value (HepG2 cells [2]) was 1.120 and the “RQ CDK4” value (HepG2 cells [2]) was 1.730. For the same compound, the “RQ CDK5” value (HepG2 cells [2]) was 1.104, the “RQ CDK7” value (HepG2 cells [2]) was 2.039 and the “RQ CDK8” value (HepG2 cells [2]) was 3.664. For the same compound, the “RQ CDK9” value (HepG2 cells [2]) was 1.146, the “RQ CTSB” value (HepG2 cells [2]) was 0.972 and the “RQ CTSD” value (HepG2 cells [2]) was 1.586. The “RQ CTSL” value (HepG2 cells [2]) was 0.950, the “RQ CTSS” value (HepG2 cells [2]) was 0.866 and the “RQ EGFR” value (HepG2 cells [2]) was 1.856. For the same compound, the “RQ ERBB2” value (HepG2 cells [2]) was 1.118, the “RQ ERBB3” value (HepG2 cells [2]) was 1.280 and the “RQ ESR1” value (HepG2 cells [2]) was 0.968. The “RQ ESR2” value (HepG2 cells [2]) was 2.732, the “RQ GRB2” value (HepG2 cells [2]) was 2.255 and the “RQ GSTP1” value (HepG2 cells [2]) was 0.276 and 0.27. For the same compound, the “RQ HDAC1” value (HepG2 cells [2]) was 16.128, the “RQ HDAC2” value (HepG2 cells [2]) was 2.118 and the “RQ HDAC3” value (HepG2 cells [2]) was 3.639. For the same compound, the “RQ HDAC4” value (HepG2 cells [2]) was 0.456, the “RQ HDAC6” value (HepG2 cells [2]) was 1.088 and the “RQ HDAC7” value (HepG2 cells [2]) was 2.228. The “RQ HDAC8” value (HepG2 cells [2]) was 1.517, the “RQ HDAC11” value (HepG2 cells [2]) was 3.379 and the “RQ HIF1A” value (HepG2 cells [2]) was 3.509. For the same compound, the “RQ HRAS” value (HepG2 cells [2]) was 0.785, the “RQ HSP90AA1” value (HepG2 cells [2]) was 3.278 and the “RQ HSP90B1” value (HepG2 cells [2]) was 2.205. For the same compound, the “RQ IGF1R” value (HepG2 cells [2]) was 1.357, the “RQ KRAS” value (HepG2 cells [2]) was 1.185 and the “RQ MDM2” value (HepG2 cells [2]) was 0.982. For the same compound, the “RQ MDM4” value (HepG2 cells [2]) was 2.736, the “RQ MTOR” value (HepG2 cells [2]) was 1.092 and the “RQ NFKB1” value (HepG2 cells [2]) was 0.760. For the same compound, the “RQ NRAS” value (HepG2 cells [2]) was 0.469, the “RQ NTN3” value (HepG2 cells [2]) was 0.712 and the “RQ PARP1” value (HepG2 cells [2]) was 1.065. For the same compound, the “RQ PARP4” value (HepG2 cells [2]) was 2.503, the “RQ PDGFRB” value (HepG2 cells [2]) was 1.004 and the “RQ PGR” value (HepG2 cells [2]) was 30.650. For the same compound, the “RQ PIK3C2A” value (HepG2 cells [2]) was 0.839, the “RQ PIK3C3” value (HepG2 cells [2]) was 0.840 and the “RQ PIK3CA” value (HepG2 cells [2]) was 0.441 and 0.44. The “RQ PLK1” value (HepG2 cells [2]) was 0.509, the “RQ PLK2” value (HepG2 cells [2]) was 5.868 and the “RQ PLK3” value (HepG2 cells [2]) was 2.039. The “RQ PLK4” value (HepG2 cells [2]) was 0.844, the “RQ PRKCA” value (HepG2 cells [2]) was 1.337 and the “RQ PRKCB” value (HepG2 cells [2]) was 0.506. The “RQ PRKCD” value (HepG2 cells [2]) was 0.340, the “RQ PRKCE” value (HepG2 cells [2]) was 1.636 and the “RQ PTGS2” value (HepG2 cells [2]) was 15.420. For the same compound, the “RQ RHOA” value (HepG2 cells [2]) was 0.628, the “RQ RHOB” value (HepG2 cells [2]) was 0.406 and the “RQ TERT” value (HepG2 cells [2]) was 1.051. For the same compound, the “RQ TNKS” value (HepG2 cells [2]) was 2.369, the “RQ TOP2A” value (HepG2 cells [2]) was 0.423 and the “RQ TOP2B” value (HepG2 cells [2]) was 0.235. For the same compound, the “RQ TP53” value (HepG2 cells [2]) was 1.658, the “RQ TXN” value (HepG2 cells [2]) was 0.375 and 0.37 and the “RQ TXNRD1” value (HepG2 cells [2]) was 0.35.
